In one assay the target is T1, GdmN (Streptomyces hygroscopicus, UniProt Q84G19, V24Y/G157A/R158A/G188R).
T1 construct: homodimer; Kae1-like M1-L351, YrdC-like G368-A571, dimerization domain D574-L674; one iron ion per monomer
Kind of assay: X-ray co-crystal structure. The assay is classed as binding. As to conditions: reaction intermediate formed from ATP, MgCl2 and carbamoyl phosphate; carbamoyl group rotated.

Assay [1] concerns the target GdmN (Streptomyces hygroscopicus XM201). Kind of assay: SEC; Superdex 200 Increase 10/300 GL, buffer C (10 mM Tris, 150 mM NaCl, pH 8.0), calibrated with Bio-Rad gel filtration standards; monomer to dimer.

T1 sequence (Q84G19 entry or part of it V24Y/G157A/R158A/G188R): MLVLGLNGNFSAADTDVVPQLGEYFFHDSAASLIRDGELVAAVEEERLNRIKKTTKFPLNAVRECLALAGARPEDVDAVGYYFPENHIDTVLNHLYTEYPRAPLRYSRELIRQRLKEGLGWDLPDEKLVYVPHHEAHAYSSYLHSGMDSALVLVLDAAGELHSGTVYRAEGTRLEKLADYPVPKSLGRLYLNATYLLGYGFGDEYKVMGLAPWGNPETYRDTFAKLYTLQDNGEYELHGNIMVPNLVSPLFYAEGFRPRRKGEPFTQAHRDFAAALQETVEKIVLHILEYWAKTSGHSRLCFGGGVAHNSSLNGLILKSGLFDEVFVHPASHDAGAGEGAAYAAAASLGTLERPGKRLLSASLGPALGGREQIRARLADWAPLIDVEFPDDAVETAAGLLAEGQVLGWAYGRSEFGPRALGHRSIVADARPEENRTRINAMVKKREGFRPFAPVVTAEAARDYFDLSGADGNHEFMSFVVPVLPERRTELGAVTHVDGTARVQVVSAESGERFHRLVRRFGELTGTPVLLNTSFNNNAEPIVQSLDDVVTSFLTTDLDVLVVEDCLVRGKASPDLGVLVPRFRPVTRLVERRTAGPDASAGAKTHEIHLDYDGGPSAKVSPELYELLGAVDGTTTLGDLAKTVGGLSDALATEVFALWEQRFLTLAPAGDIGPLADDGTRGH

With `NC(=O)OP(=O)(O)OC[C@H]1O[C@@H](n2cnc3c(N)ncnc32)[C@H](O)[C@@H]1O` [carbamoyl-AMP], the X-ray co-crystal structure result on GdmN was “complex of GdmN V24Y/G157A/R158A/G188R mutant with carbamoyl-AMP (PDB: 7VZQ)”. GdmN (enzyme) showed a stoichiometry N in assay [1] of 2.

The values above are taken from article PMC9633730, “Endowing homodimeric carbamoyltransferase GdmN with iterative functions through structural characterization and mechanistic studies” (Nature Communications, 2022).
